Measured values: ChEMBL document CHEMBL5131480, “Cinnamic acid derivatives linked to arylpiperazines as novel potent inhibitors of tyrosinase activity and melanin synthesis” (Eur J Med Chem, 2022)
Calls of active or inactive are those of the source. The calls are words filed in the database; no cut-off is given here.

Key:
[1] = Acute toxicity in zebra fish embryos assessed as lack of detachment of tail bud from yolk sac at 25 to 100 uM measured after 24 hrs by stereomicroscope analysis; parameters: species or system Danio rerio, Embryo; conditions: zebrafish, dose 25-100 µM
[2] = Acute toxicity in zebra fish embryos assessed as coagulation of fertilized eggs at 25 to 100 uM measured after 24 hrs by stereomicroscope analysis; parameters: species or system Danio rerio; conditions: zebrafish, dose 25-100 µM
Danio rerio [3] = organism: Danio rerio; test: Anti-melanogenic activity against zebra fish embryos assessed as proportion of embryos showing profound decrease in melanogenesis at 25 uM measured after 48 hrs by stereomicroscope analysis relative to control; type: functional; parameters: scale not given: the % may be the effect or the level left
Danio rerio [4] = organism: Danio rerio; test: Anti-melanogenic activity against zebra fish embryos assessed as proportion of embryos showing moderate decrease in melanogenesis at 25 uM measured after 48 hrs by stereomicroscope analysis relative to control; type: functional; parameters: scale not given: the % may be the effect or the level left
in vitro [5] = conditions: human, A-375 cells
Description: Cytotoxicity against human A-375 cells assessed as reduction in cell viability incubated for 72 hrs by MTT assay

Mushroom tyrosinase = Mushroom tyrosinase (Agaricus bisporus, UniProt O42713+Q00024+C7FF04+C7FF05); test: Inhibition of mushroom tyrosinase using L-DOPA as substrate preincubated with substrate for 10 mins followed by addition of enzyme and measured for 5 mins by spectrophotometric analysis
[6] = Acute toxicity in zebra fish embryos assessed as lack of heart beat at 25 to 100 uM measured after 24 hrs by stereomicroscope analysis; type: tissue-based, Danio rerio; conditions: zebrafish, dose 25-100 µM
[7] = target: Mushroom tyrosinase (Agaricus bisporus) (UniProt O42713+Q00024+C7FF04+C7FF05); test: Potency index, ratio of kojic acid IC50 to test compound IC50 for mushroom tyrosinase by spectrophotometric analysis
[8] = Cytotoxicity against human A-375 cells assessed as cell viability at 20 uM incubated for 72 hrs by MTT assay relative to control; type: toxicity, cell-based; conditions: read-out: Activity
Danio rerio [9] = organism: Danio rerio; test: Anti-melanogenic activity against zebra fish embryos assessed as proportion of embryos showing profound decrease in melanogenesis at 50 uM measured after 48 hrs by stereomicroscope analysis relative to control; type: functional; parameters: scale not given: the % may be the effect or the level left
Danio rerio [10] = organism: Danio rerio; test: Anti-melanogenic activity against zebra fish embryos assessed as proportion of embryos with none to mild moderate decrease in melanogenesis at 50 uM measured after 48 hrs by stereomicroscope analysis relative to control; type: functional; parameters: scale not given: the % may be the effect or the level left
in vitro [11] = conditions: human, A-375 cells; remark: listed apart in the source
Description: Cytotoxicity against human A-375 cells assessed as cell viability at 50 uM incubated for 72 hrs by MTT assay relative to control

[12] = Acute toxicity in zebra fish embryos assessed as strong malformation embryos at 100 uM measured after 48 hrs by stereomicroscope analysis; parameters: species or system Danio rerio; conditions: zebrafish
[13] = Acute toxicity in zebra fish embryos assessed as lack of somite formation at 25 to 100 uM measured after 24 hrs by stereomicroscope analysis; parameters: species or system Danio rerio; conditions: zebrafish, dose 25-100 µM
Danio rerio [14] = organism: Danio rerio; test: Anti-melanogenic activity against zebra fish embryos assessed as proportion of embryos showing moderate decrease in melanogenesis at 50 uM measured after 48 hrs by stereomicroscope analysis relative to control; type: functional; parameters: scale not given: the % may be the effect or the level left
Danio rerio [15] = organism: Danio rerio; test: Anti-melanogenic activity against zebra fish embryos assessed as proportion of embryos with none to mild moderate decrease in melanogenesis at 25 uM measured after 48 hrs by stereomicroscope analysis relative to control; type: functional; parameters: scale not given: the % may be the effect or the level left
[16] = Acute toxicity in zebra fish embryos assessed as bradycardia at 25 to 100 uM measured after 24 hrs by stereomicroscope analysis; parameters: species or system Danio rerio; conditions: zebrafish, dose 25-100 µM
[17] = Acute toxicity in zebra fish embryos assessed as strong malformation embryos at 25 to 100 uM measured after 48 hrs by stereomicroscope analysis; parameters: species or system Danio rerio; conditions: zebrafish, dose 25-100 µM
[18] = Acute toxicity in zebra fish embryos assessed as pericardial edema and embryonic lethality at 50 uM measured after 24 hrs by stereomicroscopic analysis; parameters: species or system Danio rerio; conditions: zebrafish
[19] = Acute toxicity in zebra fish embryos assessed as death of organism at 50 uM measured after 48 hrs by stereomicroscope analysis; parameters: species or system Danio rerio; conditions: zebrafish
[20] = Acute toxicity in zebra fish embryos assessed as alteration in heart functioning at 50 uM measured after 24 hrs by stereomicroscopic analysis; type: tissue-based, Danio rerio; conditions: zebrafish
[21] = Acute toxicity in zebra fish embryos assessed as bradycardia at 25 to 100 uM measured after 48 hrs by stereomicroscope analysis; parameters: species or system Danio rerio; conditions: zebrafish, dose 25-100 µM
[22] = Acute toxicity in zebra fish embryos assessed as death of organism measured at 25 to 100 uM measured after 24 hrs by stereomicroscope analysis; parameters: species or system Danio rerio; conditions: zebrafish, dose 25-100 µM
[23] = target: T1, Tyrosinase (Homo sapiens) (UniProt P14679); test: Inhibition of tyrosinase activity in alpha-MSH stimulated human A-375 cells using L-DOPA as substrate at 20 uM by microplate reader analysis; type: cell-based
T1 sequence (whole entry): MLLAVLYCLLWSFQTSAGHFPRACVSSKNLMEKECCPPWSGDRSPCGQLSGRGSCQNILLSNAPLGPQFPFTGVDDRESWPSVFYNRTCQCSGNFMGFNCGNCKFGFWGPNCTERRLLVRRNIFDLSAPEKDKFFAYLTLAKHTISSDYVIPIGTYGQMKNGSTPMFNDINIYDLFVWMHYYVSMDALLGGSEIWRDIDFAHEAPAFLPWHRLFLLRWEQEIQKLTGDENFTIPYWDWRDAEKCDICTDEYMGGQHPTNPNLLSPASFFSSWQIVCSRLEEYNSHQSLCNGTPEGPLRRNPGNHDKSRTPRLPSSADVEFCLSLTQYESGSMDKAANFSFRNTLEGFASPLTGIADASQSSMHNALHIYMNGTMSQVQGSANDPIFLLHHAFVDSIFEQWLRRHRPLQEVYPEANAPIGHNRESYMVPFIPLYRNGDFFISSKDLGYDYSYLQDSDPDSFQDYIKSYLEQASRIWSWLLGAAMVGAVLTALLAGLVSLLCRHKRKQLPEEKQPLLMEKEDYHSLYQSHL

[24] = Acute toxicity in zebra fish embryos assessed as coagulation of fertilized eggs measured at 25 to 100 uM measured after 24 to 48 hrs by stereomicroscope analysis; parameters: species or system Danio rerio; conditions: zebrafish, dose lower 25 µM, time lower 24 hrs, dose upper 100 µM, time upper 48 hrs
[25] = Acute toxicity in zebra fish embryos assessed as lack of heart beat at 25 to 100 uM measured after 24 to 48 hrs by stereomicroscope analysis; type: tissue-based, Danio rerio; conditions: zebrafish, dose lower 25 µM, time lower 24 hrs, dose upper 100 µM, time upper 48 hrs
[26] = Acute toxicity in zebra fish embryos assessed as lack of detachment of tail bud from yolk sac at 25 to 100 uM measured after 24 to 48 hrs by stereomicroscope analysis; parameters: species or system Danio rerio, Embryo; conditions: zebrafish, dose lower 25 µM, time lower 24 hrs, dose upper 100 µM, time upper 48 hrs
[27] = Acute toxicity in zebra fish embryos assessed as lack of somite formation at 25 to 100 uM measured after 24 to 48 hrs by stereomicroscope analysis; parameters: species or system Danio rerio; conditions: zebrafish, dose lower 25 µM, time lower 24 hrs, dose upper 100 µM, time upper 48 hrs
[28] = target: T1, Tyrosinase (Homo sapiens); test: Inhibition of tyrosinase activity in alpha-MSH stimulated human A-375 cells using L-DOPA as substrate at 20 uM by microplate reader analysis relative to control; type: cell-based

Row | Structure (SMILES) | IC50 (Mushroom tyrosinase) [µM] | Activity (Danio rerio [3]) [%] | Activity (Danio rerio [4]) [%] | GI50 at 72 h (in vitro [5]) [µM] | Ratio IC50 [7] | viability at 72 h, 20 µM [8] [%] | Activity (Danio rerio [9]) [%] | Activity (Danio rerio [10]) [%] | viability at 72 h, 50 µM (in vitro [11]) [%] | Activity (Danio rerio [14]) [%] | Activity (Danio rerio [15]) [%] | other results
1 | O=C(/C=C/c1cccc([N+](=O)[O-])c1)N1CCN(c2ccc(F)c(Cl)c2)CC1 | 0.16 | 0 | 0 | > 50 | 30 | 98 | 0 | 85 | 87.2 | 15 | 100 | Activity [1]: Non-Toxic; Activity [2]: Non-Toxic; Activity [6]: Non-Toxic; Activity [12]: 6.6%; Activity [13]: Non-Toxic
2 | O=C(/C=C/c1ccc([N+](=O)[O-])cc1)N1CCN(c2ccc(F)c(Cl)c2)CC1 | 0.35 | – | – | > 50 | 30 | 98 | – | – | 85.4 | – | – | Activity [16]: Toxic; Activity [17]: 13.3%
3 | COc1ccc(/C=C/C(=O)N2CCN(c3cccc(F)c3)CC2)cc1N | > 100 | – | – | – | – | – | – | – | – | – | – | –
4 | COc1ccc(Cl)cc1/C=C/C(=O)N1CCN(c2ccc(F)c(Cl)c2)CC1 | 0.46 | – | – | > 50 | 30 | 98 | – | – | 72.6 | – | – | Activity [18]: 5%; Activity [1]: Non-Toxic; Activity [2]: Non-Toxic; Activity [19]: Toxic; Activity [6]: Non-Toxic; Activity [20]: 95%; Activity [13]: Non-Toxic; Activity [21]: Toxic
5 | COc1ccc(/C=C/C(=O)N2CCN(Cc3ccccc3)CC2)cc1N | 55.64 | – | – | – | – | – | – | – | – | – | – | –
6 | COc1cccc(/C=C/C(=O)N2CCN(c3ccc(F)c(Cl)c3)CC2)c1Cl | 0.12 | 0 | 15 | > 50 | 150 | 98 | 20 | 50 | 69.6 | 30 | 85 | Activity [22]: Toxic; Activity [6]: Toxic; inhibition [23]: Active
7 | COc1cccc(/C=C/C(=O)N2CCN(c3ccc(F)c(Cl)c3)CC2)c1 | 0.25 | 0 | 0 | > 50 | 30 | 98 | 0 | 100 | 54 | 0 | 100 | Activity [24]: Non-Toxic; Activity [25]: Non-Toxic; inhibition [23]: Active; Activity [26]: Non-Toxic; Activity [27]: Non-Toxic
8 | COc1ccc(/C=C/C(=O)N2CCN(c3ccc(F)c(Cl)c3)CC2)cc1N | 0.53 | 0 | 20 | 16.1 | 30 | 45 | 30 | 50 | – | 20 | 80 | Activity [24]: Non-Toxic; Activity [25]: Non-Toxic; Activity [26]: Non-Toxic; Activity [27]: Non-Toxic
9 | COc1ccc(/C=C/C(=O)N2CCN(c3ccc(F)c(Cl)c3)CC2)cc1[N+](=O)[O-] | 0.51 | 15 | 60 | > 50 | 30 | 98 | 10 | 45 | 93.5 | 45 | 25 | inhibition [28]: 60%; Activity [24]: Non-Toxic; Activity [25]: Non-Toxic; Activity [26]: Non-Toxic; Activity [27]: Non-Toxic
10 | O=C(/C=C/c1ccc(Cl)cc1)N1CCN(c2ccc(F)c(Cl)c2)CC1 | 0.33 | 0 | 0 | 43.8 | 30 | 98 | 0 | 95 | – | 5 | 0 | Activity [1]: Non-Toxic; Activity [2]: Non-Toxic; Activity [6]: Non-Toxic; Activity [13]: Non-Toxic; Activity [21]: Toxic
11 | O=C(/C=C/c1ccc2c(c1)OCO2)N1CCN(c2cccc(Cl)c2)CC1 | 34.25 | – | – | – | – | – | – | – | – | – | – | –
12 | COc1ccc(/C=C/C(=O)N2CCN(c3ccc(F)c(F)c3)CC2)cc1N | 6.84 | – | – | – | – | – | – | – | – | – | – | –

Second part, led by results:

Row | IC50 (Mushroom tyrosinase) [µM] | Structure (SMILES) | Activity (Danio rerio [3]) [%] | Activity (Danio rerio [4]) [%] | GI50 at 72 h (in vitro [5]) [µM] | Ratio IC50 [7] | viability at 72 h, 20 µM [8] [%] | Activity (Danio rerio [9]) [%] | Activity (Danio rerio [10]) [%] | viability at 72 h, 50 µM (in vitro [11]) [%] | Activity (Danio rerio [14]) [%] | Activity (Danio rerio [15]) [%] | other results
13 | 9.96 | COc1cccc(/C=C/C(=O)N2CCN(c3ccc(F)cc3)CC2)c1 | – | – | – | – | – | – | – | – | – | – | –
14 | 23.32 | O=C(/C=C/c1cccc([N+](=O)[O-])c1)N1CCN(c2ccc(F)cc2)CC1 | – | – | – | – | – | – | – | – | – | – | –
15 | 15.47 | COc1ccc(/C=C/C(=O)N2CCN(c3ccc(F)c(F)c3)CC2)cc1[N+](=O)[O-] | – | – | – | – | – | – | – | – | – | – | –
16 | 17.85 | COc1ccc(/C=C/C(=O)N2CCN(c3ccc(F)cc3)CC2)cc1N | – | – | – | – | – | – | – | – | – | – | –
17 | 27.4 | COc1ccc(Cl)cc1/C=C/C(=O)N1CCN(c2ccc(F)cc2)CC1 | – | – | – | – | – | – | – | – | – | – | –
18 | 14.09 | O=C(/C=C/c1ccc(Cl)cc1)N1CCN(c2ccc(F)cc2)CC1 | – | – | – | – | – | – | – | – | – | – | –
